22 compounds from PubChem BioAssay (NCI) can be followed below.

Common to all, as to assay: NCI anticancer screen, dose series, 48 h
Assay [1] deals with CAKI-1 renal.
The subject of assay [2] is HCT-116 colon.
Assay [3] deals with HOP-62 NSCLC.
The subject of assay [4] is HT29 colon.
The subject of assay [5] is KM12 colon.
In assay [6] the test system is LOX IMVI melanoma.
Assay [7] has as its system MCF7 breast.
The test system of assay [8] is SF-539 CNS.
The subject of assay [9] is SK-OV-3 ovarian.
Assay [10] relates to SN12C renal.
Assay [11] has as its system SNB-75 CNS.
Assay [12] has as its system UACC-257 melanoma.
The test system of assay [13] is UO-31 renal.

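Five compound concentrations were applied to cells in 96-well plates for 48 hours; endpoints were derived by simple linear interpolation of the resulting dose-response curve. The concentration for full growth arrest is given as TGI.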

Regarding `COC(=O)C(Cc1ccccc1)NS(=O)(=O)c1ccc(-c2c3nc(c(-c4ccc(S(=O)(=O)NC(Cc5ccccc5)C(=O)OC)cc4)c4ccc([nH]4)c(-c4ccc(S(=O)(=O)NC(Cc5ccccc5)C(=O)OC)cc4)c4nc(c(-c5ccc(S(=O)(=O)NC(Cc6ccccc6)C(=O)OC)cc5)c5ccc2[nH]5)C=C4)C=C3)cc1` (centres undefined), the TGI in assay [1], in assay [2], in [3], in assay [4], in assay [5] and in assay [6] was over 100 µM throughout. In addition, the TGI in assay [7] was over 100 µM; in assay [8] it was over 100 µM; in assay [9] it was over 100 µM; in assay [10] it was over 100 µM; in [11], 31.5 µM; in assay [12] it was over 100 µM. Further, in assay [13], the TGI was over 100 µM.

On to `COC(=O)c1ccccc1CC1Cc2cc3c(cc2C1)CCC3`, for which the TGI in [1] is over 100 µM; in [2], 83.1 µM; in assay [3] it was over 100 µM; in assay [4], over 100 µM; in assay [5], 71.1 µM; in assay [6], 47.8 µM. Further, the TGI was over 100 µM in assay [7]; over 100 µM in assay [8]; over 100 µM in [9]; over 100 µM in assay [10]; over 100 µM in assay [11]; 73.1 µM in [12]. Moreover, in [13], the TGI was over 100 µM.

With `OC[C@H]1CC(c2nn[nH]n2)[C@H](O)[C@@H]1O` (some centres undefined), the TGI in assay [2], in assay [3], in assay [4], in [5], in assay [6] and in assay [7] was over 100 µM in each case. Also, the TGI in assay [8], in [9], in [10], in assay [11] and in assay [13] was over 100 µM throughout.

Regarding `COc1ccc(C2=C(OC(C)=O)c3cccn3-c3ccccc3S2)cc1`, the TGI in [1], in assay [3], in [4], in assay [5], in [6] and in [7] was over 10 µM throughout. Besides, the TGI in assay [9], in [10], in assay [11] and in assay [12] was over 10 µM in each case.

As for `CC(C)C1OCC(CO)CO1` (centres undefined), the TGI in assay [1], in assay [2], in [3], in assay [4], in assay [5] and in assay [6] was over 100 µM throughout. The TGI in [7], in assay [8], in assay [9], in assay [10], in [11] and in assay [12] was over 100 µM throughout. Also, in assay [13], the TGI is over 100 µM.

As for `COc1cc2c[n+](C)c3c4ccccc4ccc3c2cc1OC`, the TGI was over 100 µM in assay [1]; over 67.7 µM in assay [2]; 37.4 µM in [3]; over 47.6 µM in assay [4]; 2.65 µM in assay [5]; 45 µM in [6]. Besides, the TGI was over 100 µM in assay [7]; 23.7 µM in assay [8]; 32.5 µM in assay [9]; 7.95 µM in assay [10]; 18.7 µM in assay [11]; 21 µM in assay [12]. The compound further displayed a TGI in assay [13] of over 100 µM.

On to `Cc1cc(S(=O)(=O)Nc2nc(N)n(C)n2)c(S)cc1Cl`, for which the TGI in assay [1], in assay [2], in [3], in assay [4], in assay [5] and in [6] was over 10 µM in each case. Further, the TGI in assay [7], in assay [8], in [9], in assay [10], in assay [11] and in assay [12] was over 10 µM in each case. The compound further gave a TGI in [13] of over 10 µM.

For `Nc1nc(Cl)c2ncn(Cc3ccccc3CCl)c2n1`, the TGI in assay [1] is 20.4 µM; in assay [2], over 100 µM; in assay [3], 62.3 µM; in assay [4] it was 18.9 µM; in assay [5] it was 39 µM; in assay [6] it was 21.9 µM. The TGI in assay [7] turned out to be 24.3 µM; in assay [8] it was 38.2 µM; in assay [9] it was 52.1 µM; in [10] it was 5.62 µM; in [11] it was 23.8 µM; in assay [12], 38.2 µM. In addition, the TGI in assay [13] is 45 µM.

For `O=[N+]([O-])c1cc(Cl)ccc1S(=O)(=O)c1ccccc1`, the TGI in assay [1], in assay [2], in assay [3], in assay [4], in assay [5] and in assay [6] was over 100 µM in each case. For the same compound, the TGI in assay [7], in [8], in [9], in assay [10], in assay [11] and in assay [12] was over 100 µM throughout. This compound also gave a TGI in assay [13] of over 100 µM.

In the case of `CCCNc1[nH]c(C(C)=O)c(N)c1C(=S)Nc1ccccc1`, the TGI in [1] is over 100 µM; in assay [2] it was over 100 µM; in [3], over 100 µM; in [4], 53.2 µM; in assay [5], over 100 µM; in assay [6], 63.4 µM. Further, the TGI in [7] is 45.4 µM; in [8], 65.4 µM; in [9], over 100 µM; in [10], over 100 µM; in assay [11], over 100 µM; in assay [12], over 100 µM. Besides, the TGI in assay [13] was over 100 µM.

As for `O=[N+]([O-])C(=C1Nc2ccccc2N1)C(Cl)=C(Cl)Cl`, the TGI in [1], in assay [2], in assay [3], in [4], in assay [5] and in assay [6] was over 100 µM in each case. Further, the TGI is over 100 µM in assay [7]; over 100 µM in assay [8]; over 100 µM in assay [9]; over 100 µM in assay [10]; 12.4 µM in assay [11]; over 100 µM in [12]. In assay [13], the TGI is over 100 µM.

With `Cc1ccc(C2SC(N)=Nc3c2c(C)nn3C(=O)c2ccncc2)cc1` (centres undefined), the TGI in assay [1], in assay [2], in [3], in [4], in assay [5] and in assay [6] was over 10 µM throughout. Further, the TGI in assay [7], in assay [8], in assay [9], in assay [10], in assay [11] and in assay [12] was over 10 µM each time.

On to `N#Cc1c(N2CCOCC2)ncn(-c2ccccc2)c1=O`, for which the TGI in assay [1], in assay [2], in assay [3], in [5], in assay [6] and in [7] was over 100 µM each time. The TGI in [8], in assay [9], in assay [10], in assay [11], in [12] and in assay [13] was over 100 µM each time.

As to `CC(C)CCNC(=O)c1ccc(CNC(=O)/C=C/c2ccc(-c3ccccc3[N+](=O)[O-])o2)cc1`, the TGI is over 100 µM in [1]; over 100 µM in assay [2]; 60.8 µM in [3]; over 100 µM in assay [5]; over 100 µM in assay [6]; over 100 µM in assay [7]. For the same compound, the TGI in [9], in assay [10], in assay [11], in assay [12] and in assay [13] was over 100 µM throughout.

Turning to `CCNC1CC(C(C)(C)NCC)CC=C1C` (centres undefined), the TGI in [2], in assay [3], in assay [4], in [5], in assay [6] and in assay [7] was over 100 µM in each case. Besides, the TGI in assay [8], in [9], in assay [10], in assay [11], in [12] and in [13] was over 100 µM in each case.

As to `Cn1ncc2c(NCCc3ccccc3)nc(Cl)nc21`, the TGI in assay [1] is 91.4 µM; in assay [2], over 100 µM; in [3] it was 81.3 µM; in assay [4] it was 31 µM; in assay [5], 85.5 µM; in assay [6] it was over 100 µM. Moreover, the TGI in assay [7] was over 100 µM; in assay [9], 71.7 µM; in assay [10], over 100 µM; in [11], 76.1 µM; in assay [12], 12.3 µM; in assay [13], 73 µM.

As for `C=CCSc1nn(CC=C)cc2ncnc1-2`, the TGI in assay [1], in [2], in assay [3], in assay [4], in assay [5] and in assay [7] was over 100 µM throughout. Moreover, the TGI in assay [8], in assay [10], in [11], in assay [12] and in assay [13] was over 100 µM throughout.

Take `Cc1cc2c3c(ccc4ncc(c43)CN2c2ccc(NS(C)(=O)=O)cc2)[nH]1`: the TGI in assay [1] is 64.5 µM; in [2] it was 44.1 µM; in assay [3], 46.1 µM; in assay [4], over 100 µM; in assay [5], over 100 µM; in [6], over 100 µM. Moreover, the TGI is over 100 µM in assay [7]; 97.5 µM in [9]; 44.3 µM in assay [11]; over 100 µM in assay [12]; 78.4 µM in assay [13].

`CC(=O)OC1CC(OC2C(O)CC(OC3C(O)CC(OC4CCC5(C)C(CCC6C5CC(O)C5(C)C(C7=CC(=O)OC7)CCC65O)C4)OC3C)OC2C)OC(C)C1O` (centres undefined) (tested in a mixture with another compound): the TGI turned out to be 0.0818 µM in assay [1]; 0.039 µM in assay [2]; 0.152 µM in assay [3]; 0.0954 µM in assay [4]; 0.116 µM in assay [5]; 0.0944 µM in [6]. Further, the TGI came to 0.216 µM in assay [7]; 0.113 µM in assay [8]; 0.162 µM in assay [9]; 0.191 µM in [11]; 0.305 µM in [12]; 0.169 µM in assay [13].

Turning to `CC(=O)CN=C(C)NNc1ccc([N+](=O)[O-])cc1[N+](=O)[O-]`, the TGI in [1], in assay [2], in [3], in assay [4], in assay [6] and in [7] was over 100 µM in each case. The TGI in [8], in assay [9], in assay [10], in assay [11] and in [13] was over 100 µM in each case.

Take `CN1c2ccccc2C2c3c(O)ccc(O)c3C=C([N+](=O)[O-])C21` (centres undefined): the TGI in [1] is 5.16 µM; in assay [2], 0.651 µM; in assay [3], 5.96 µM; in assay [4], 0.568 µM; in assay [5] it was 1.82 µM; in assay [7] it was 0.346 µM. The TGI was 4.45 µM in [8]; 13.5 µM in assay [9]; over 24.2 µM in assay [11]; 0.516 µM in assay [12]; 2.1 µM in [13].

For `C=CCC1(O)c2cccc(O)c2C(=O)c2c(O)cccc21`, the TGI in [1] is over 100 µM; in assay [2], 57.7 µM; in assay [3] it was over 100 µM; in assay [4], 67.9 µM; in assay [5], over 100 µM; in assay [6], 57.2 µM. In addition, the TGI in assay [7] was over 100 µM; in [8], over 100 µM; in [11], 75.2 µM; in assay [12], 68.3 µM; in assay [13], over 100 µM.
